Patent publication US20230116707A1, “DETECTION OF NOVEL DEGRADATION-RELATED INTERACTIONS” (Orionis Biosciences, Inc., priority 2019, published 2023)

Legend:
Type in all cases: cell-based
[1] = molecular target: T1, CRBN with proteins of a human ORF(eome) cDNA library (Homo sapiens, UniProt Q96SW2); experiment: MAPPIT-derivative cell microarray screen of a human ORF(eome) cDNA library with CRBN bait (pSEL-CRBN); details: CC-220 10 μM; four ORF cDNAs confirmed in dose-response
T1 construct: expressed in transfected cells; host or cells: HEK293T
Description: In order to identify ligand-induced CRBN substrates, or neosubstrates, a MAPPIT cell microarray screen was performed using the procedure described in Lievens, et al. “Proteome-scale binary interactomics in human cells.” Molecular & Cellular Proteomics 15.12 (2016): 3624-3639. […] These transfected cells were then added to microarray screening plates containing a prey gp130 fusion expression plasmid collection covering over 15,000 ORFs. Each spot in the microarray contained a different gp130-ORF fusion expression plasmid, as well as a STAT3-responsive fluorescence protein-encoding reporter plasmid. CRBN bait transfected cells landing and attaching on these spots therefore become transfected as well with the gp130-ORF prey plasmid and the reporter plasmid, resulting in a different CRBN-ORF combination being tested in the cells on every different microarray spot. Twenty-four hours after transfection cells were differentially stimulated with erythropoietin with and without the CRBN ligand CC-220 (10 μM), and reporter signal (GFP-like fluorescence reporter) was read out 48 hours later.

CRBN-GSPT1 interaction = molecular target: T2, CRBN-GSPT1 interaction (Homo sapiens, UniProt Q96SW2); experiment: MAPPIT-derivative assay, CRBN bait receptor fusion (pSEL-CRBN) with gp130-GSPT1 (domain 2+3), luciferase reporter in HEK293T cells; details: dose-response, EPO-stimulated, 24 hours compound treatment
T2 construct: expressed in transfected cells; host or cells: HEK293T
Excerpt: (§1) In order to identify ligand-induced CRBN substrates, or neosubstrates, here we use a derivative of the MAPPIT assay, applying the procedure described in Lemmens, et al. “MAPPIT, a mammalian two-hybrid method for in-cell detection of protein-protein interactions,” Methods Mol Biol. 2015; 1278:447-55. The traditional MAPPIT assay has been used to monitor protein-protein interactions. A bait protein (protein A) is expressed as a fusion protein in which it is genetically fused to an engineered intracellular receptor domain of the leptin receptor, which is itself fused to the extracellular domain of the erythropoietin (Epo) receptor. […] Activation of STAT3 can be monitored by introduction of a STAT3-responsive reporter gene, including a luciferase-encoding gene or a gene encoding a fluorescent marker such as GFP or some other type of Fluorescent Protein (EGFP, etc.). […]
(§2) In this Example 1, we used a derivative of the MAPPIT assay that we developed specifically for use in determining CRBN-ligand induced protein interactions, i.e. using a specific CRBN bait protein and assaying for ligand-dependent induction of protein complex formation. The CRBN bait protein is expressed as a fusion with the MAPPIT chimeric membrane receptor and the interacting target protein is fused with the cytoplasmic gp130 receptor fragment (gp130-IKZF1(isoform 7), gp130-target X, gp130-GSPT1(domain 2+3) or gp130-GSPT2). […]

CRBN-GSPT2 interaction = molecular target: T3, CRBN-GSPT2 interaction (Homo sapiens, UniProt Q96SW2); experiment: MAPPIT-derivative assay, CRBN bait receptor fusion (pSEL-CRBN) with gp130-GSPT2, luciferase reporter in HEK293T cells; details: dose-response, EPO-stimulated, 24 hours compound treatment
T3 construct: expressed in transfected cells; host or cells: HEK293T
Excerpt: as §1, §2

[2] = molecular target: T4, FKBP1A (FKBP12)-calcineurin PPP3CA interaction (Homo sapiens, UniProt P62942); experiment: MAPPIT-derivative assay, FKBP1A bait receptor fusion (pSEL-FKBP1A) with gp130 fusion of calcineurin PPP3CA catalytic subunit; details: dose-response; without or with co-expression of PPP3R2 regulatory subunit
T4 construct: expressed in transfected cells; host or cells: HEK293T
Description: (§3) Luciferase activity was measured 24 hours after test compound treatment using the Luciferase Assay System kit (PROMEGA, Madison, Wis.) with an Ensight plate reader (PERKIN ELMER LIFE SCIENCES, Waltham, Mass.). […] Error bars represent standard deviations. Curves were fit using 4-parameter nonlinear regression in […] PRISM software.

[3] = molecular target: T5, FKBP1A (FKBP12)-MTOR (FRB domain) interaction (Homo sapiens, UniProt P62942); experiment: MAPPIT-derivative assay, FKBP1A bait receptor fusion (pSEL-FKBP1A) with gp130-MTOR (FRB domain); details: dose-response, HEK293T, EPO-stimulated
T5 construct: expressed in transfected cells; host or cells: HEK293T
Description: as §3
Luciferase activity was measured 24 hours after test compound treatment using the Luciferase Assay System kit (PROMEGA, Madison, Wis.) with an Ensight plate reader (PERKIN ELMER LIFE SCIENCES, Waltham, Mass.). […] Error bars represent standard deviations.

T4 sequence (P62942 whole entry, other chains not shown, the tested form may be a part): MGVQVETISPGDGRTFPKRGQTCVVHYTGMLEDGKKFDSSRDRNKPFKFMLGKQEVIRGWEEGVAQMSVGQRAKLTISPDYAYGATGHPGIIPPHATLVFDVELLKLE
T4 sequence (Q96LZ3 whole entry partner, other chains not shown, the tested form may be a part): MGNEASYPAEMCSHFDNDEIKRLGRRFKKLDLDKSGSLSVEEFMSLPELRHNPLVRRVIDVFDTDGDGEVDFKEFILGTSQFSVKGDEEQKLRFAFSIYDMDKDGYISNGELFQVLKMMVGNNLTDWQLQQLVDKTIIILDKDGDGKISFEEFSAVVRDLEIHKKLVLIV
T3 sequence (Q96SW2 whole entry, the tested form may be a part): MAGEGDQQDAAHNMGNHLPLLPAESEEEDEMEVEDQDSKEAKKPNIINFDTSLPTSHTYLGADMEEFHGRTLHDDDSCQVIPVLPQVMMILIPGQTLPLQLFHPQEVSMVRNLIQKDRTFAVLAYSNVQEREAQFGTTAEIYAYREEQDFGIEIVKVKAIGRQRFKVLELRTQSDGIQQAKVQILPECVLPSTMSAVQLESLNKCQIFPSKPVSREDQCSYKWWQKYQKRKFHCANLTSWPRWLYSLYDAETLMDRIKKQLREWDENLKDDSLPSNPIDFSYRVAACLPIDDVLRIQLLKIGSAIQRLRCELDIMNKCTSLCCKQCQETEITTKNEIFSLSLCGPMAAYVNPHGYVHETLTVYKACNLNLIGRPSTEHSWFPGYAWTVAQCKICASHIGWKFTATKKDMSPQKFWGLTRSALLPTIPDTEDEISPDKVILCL
T3 sequence (Q8IYD1 whole entry partner, the tested form may be a part): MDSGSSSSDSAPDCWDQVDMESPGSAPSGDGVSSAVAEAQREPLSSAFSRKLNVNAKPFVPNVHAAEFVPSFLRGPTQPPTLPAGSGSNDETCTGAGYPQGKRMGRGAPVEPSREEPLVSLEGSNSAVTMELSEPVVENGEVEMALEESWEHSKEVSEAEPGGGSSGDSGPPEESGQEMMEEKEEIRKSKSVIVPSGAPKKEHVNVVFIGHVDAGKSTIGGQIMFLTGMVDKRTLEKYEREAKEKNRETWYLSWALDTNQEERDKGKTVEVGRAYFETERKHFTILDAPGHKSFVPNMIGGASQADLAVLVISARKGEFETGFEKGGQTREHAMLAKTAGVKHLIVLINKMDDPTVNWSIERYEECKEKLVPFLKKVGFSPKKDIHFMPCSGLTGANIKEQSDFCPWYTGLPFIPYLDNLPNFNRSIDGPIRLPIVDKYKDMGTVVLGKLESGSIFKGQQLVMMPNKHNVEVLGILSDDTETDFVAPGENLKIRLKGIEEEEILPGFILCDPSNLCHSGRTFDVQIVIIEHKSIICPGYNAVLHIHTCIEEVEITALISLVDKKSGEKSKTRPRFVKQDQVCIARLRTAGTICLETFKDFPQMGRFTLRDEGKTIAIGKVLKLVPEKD
T3 sequence (Q16531 whole entry partner, the tested form may be a part): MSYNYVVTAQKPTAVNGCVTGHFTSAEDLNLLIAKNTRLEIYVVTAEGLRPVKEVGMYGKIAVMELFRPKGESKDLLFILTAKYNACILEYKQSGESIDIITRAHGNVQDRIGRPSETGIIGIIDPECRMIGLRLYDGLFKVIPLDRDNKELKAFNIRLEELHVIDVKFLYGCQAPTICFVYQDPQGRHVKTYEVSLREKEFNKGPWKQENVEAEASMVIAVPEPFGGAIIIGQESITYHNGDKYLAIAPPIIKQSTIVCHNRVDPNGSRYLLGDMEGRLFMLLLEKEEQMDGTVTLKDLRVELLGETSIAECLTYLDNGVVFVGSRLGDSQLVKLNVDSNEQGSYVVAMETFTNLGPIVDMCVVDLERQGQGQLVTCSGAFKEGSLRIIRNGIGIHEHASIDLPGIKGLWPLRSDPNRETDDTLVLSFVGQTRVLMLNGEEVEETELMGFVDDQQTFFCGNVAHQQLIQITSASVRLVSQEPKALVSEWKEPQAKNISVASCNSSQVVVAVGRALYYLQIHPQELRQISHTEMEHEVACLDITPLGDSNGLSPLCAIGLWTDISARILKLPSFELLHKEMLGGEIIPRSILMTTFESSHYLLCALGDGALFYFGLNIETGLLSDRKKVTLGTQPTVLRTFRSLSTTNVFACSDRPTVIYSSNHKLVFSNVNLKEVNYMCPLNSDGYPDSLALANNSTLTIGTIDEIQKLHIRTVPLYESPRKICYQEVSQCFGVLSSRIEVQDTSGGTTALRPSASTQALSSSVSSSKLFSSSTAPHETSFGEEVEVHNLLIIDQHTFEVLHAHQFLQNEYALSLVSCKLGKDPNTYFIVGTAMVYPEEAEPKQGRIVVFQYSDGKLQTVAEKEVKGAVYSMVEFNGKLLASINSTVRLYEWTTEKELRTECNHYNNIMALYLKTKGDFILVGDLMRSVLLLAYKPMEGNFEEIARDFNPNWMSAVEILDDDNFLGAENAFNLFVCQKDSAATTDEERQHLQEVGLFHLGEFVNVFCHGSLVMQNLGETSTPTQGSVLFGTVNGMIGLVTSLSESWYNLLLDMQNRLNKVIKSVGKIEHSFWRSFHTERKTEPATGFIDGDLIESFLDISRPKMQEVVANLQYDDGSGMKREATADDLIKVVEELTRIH
T1 sequence (Q96SW2 whole entry): as the sequence (Q96SW2 whole entry, the tested form may be a part) above
T1 sequence (Q16531 whole entry partner): as the sequence (Q16531 whole entry partner, the tested form may be a part) above
T2 sequence (Q96SW2 whole entry, the tested form may be a part): as the sequence (Q96SW2 whole entry, the tested form may be a part) above
T2 sequence (P15170 299-495 partner limits assumed): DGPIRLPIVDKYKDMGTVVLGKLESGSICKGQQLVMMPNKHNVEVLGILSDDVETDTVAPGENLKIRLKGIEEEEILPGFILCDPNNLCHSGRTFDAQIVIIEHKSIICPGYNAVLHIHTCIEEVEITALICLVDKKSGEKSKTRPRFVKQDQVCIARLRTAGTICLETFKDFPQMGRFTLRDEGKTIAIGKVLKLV
T2 sequence (Q16531 whole entry partner, the tested form may be a part): as the sequence (Q16531 whole entry partner, the tested form may be a part) above
T5 sequence (P62942 whole entry, the tested form may be a part): as the sequence (P62942 whole entry, other chains not shown, the tested form may be a part) above
T5 sequence (P42345 2012-2144 partner limits assumed): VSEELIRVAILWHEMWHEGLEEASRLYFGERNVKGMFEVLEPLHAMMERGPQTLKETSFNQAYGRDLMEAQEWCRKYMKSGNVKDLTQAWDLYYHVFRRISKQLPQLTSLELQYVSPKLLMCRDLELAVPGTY

O=C1CC[C@H](N2Cc3c(OCc4ccc(CN5CCOCC5)cc4)cccc3C2=O)C(=O)N1 [CC-220]
fluorescence reporter signal, ORF proteins recruited to CRBN [1]: significant induction of signal is observed for a number of ORF cDNAs

Cc1ccc(NC(=O)NCc2ccc3c(c2)CN(C2CCC(=O)NC2=O)C3=O)cc1Cl (stereo not drawn) [CC-885]
compound-induced recruitment of GSPT1 to CRBN (reporter signal) (CRBN-GSPT1 interaction): only recruited through CC-885
compound-induced recruitment of GSPT2 to CRBN (reporter signal) (CRBN-GSPT2 interaction): only recruited through CC-885

C=CC[C@@H]1/C=C(\C)C[C@H](C)C[C@H](OC)[C@H]2O[C@@](O)(C(=O)C(=O)N3CCCC[C@H]3C(=O)O[C@H](/C(C)=C/[C@@H]3CC[C@@H](O)[C@H](OC)C3)[C@H](C)[C@@H](O)CC1=O)[C@H](C)C[C@@H]2OC [FK506, tacrolimus]
compound-dependent binding of PPP3CA to FKBP1A (reporter signal) [2]: binding of PPP3CA can be monitored

CO[C@H]1C[C@@H]2CC[C@@H](C)[C@@](O)(O2)C(=O)C(=O)N2CCCC[C@H]2C(=O)O[C@H]([C@H](C)C[C@@H]2CC[C@@H](OCCO)[C@H](OC)C2)CC(=O)[C@H](C)/C=C(\C)[C@@H](O)[C@@H](OC)C(=O)[C@H](C)C[C@H](C)/C=C/C=C/C=C/1C [everolimus]
compound-induced recruitment of MTOR to FKBP1A (reporter signal) [3]: compound-induced recruitment of MTOR is detected

CC[C@@H]1/C=C(\C)C[C@H](C)C[C@H](OC)[C@H]2O[C@@](O)(C(=O)C(=O)N3CCCC[C@H]3C(=O)O[C@H](/C(C)=C/[C@@H]3CC[C@H](Cl)[C@H](OC)C3)[C@H](C)[C@@H](O)CC1=O)[C@H](C)C[C@@H]2OC [pimecrolimus]
compound-dependent binding of PPP3CA to FKBP1A (reporter signal) [2]: binding of PPP3CA can be monitored
